SMILES strings stand for the structures.

This data set addresses T1, hERG channel (Homo sapiens, UniProt Q12809).
T1 construct: expressed in transfected cells; host or cells: CHO (Chinese hamster ovary)
In words: hERG channel inhibition assay (patch-clamp, CHO hERG cells). In kind it is cell-based. The note with it: for IC50 / IC20: CHO hERG cells, whole-cell patch-clamp; for IC20: human, CHO cells stably expressing hERG; for hERG IC20 / TLR8 IC50 / hERG IC20 / TLR7 IC50 / hERG IC20 / TLR9 IC50: safety ratio; for hERG IC20 / TLR7 IC50: TLR7 IC50 of ER compounds from Table 1; for hERG IC20 / TLR9 IC50: TLR9 IC50 of ER compounds from Table 1. On the procedure: The hERG K^+ channels were cloned in humans and stably expressed in a CHO (Chinese hamster ovary) cell line. CHOhERG cells were used for patch-clamp (voltage-clamp, whole-cell) experiments. Cells were stimulated by a voltage pattern to activate hERG channels and conduct IKhERG currents (rapid delayed outward rectifier potassium current of the hERG channel). After the cells were stabilized for a few minutes, the amplitude and kinetics of IKhERG were recorded at a stimulation frequency of 0.1 Hz (6 bpm). Thereafter, the test compound was added to the preparation at increasing concentrations. For each concentration, an attempt was made to reach a steady-state effect, usually, this was achieved within 3-10 min at which time the next highest concentration was applied. The amplitude and kinetics of IKhERG are recorded in each concentration of the drug which were compared to the control values (taken as 100%). (references: Redfern WS, Carlsson L, Davis AS, Lynch WG, MacKenzie I, Palethorpe S, Siegl PK, Strang I, Sullivan AT, Wallis R, Camm AJ, Hammond TG. 2003; Relationships between preclinical cardiac electrophysiology, clinical QT interval prolongation and torsade de pointes for a broad range of drugs: evidence for a provisional safety margin in drug development. Cardiovasc. Res. 58:32-45, Sanguinetti MC, Tristani-Firouzi M. 2006; hERG potassium channels and cardiac arrhythmia. Nature 440:463-469, Webster R, Leishman D, Walker D. 2002; Towards a drug concentration effect relationship for QT prolongation and torsades de pointes. Curr. Opin. Drug Discov. Devel. 5:116-26).
Table 3. hERG and safety ratio results

T1 sequence (Q12809 whole entry): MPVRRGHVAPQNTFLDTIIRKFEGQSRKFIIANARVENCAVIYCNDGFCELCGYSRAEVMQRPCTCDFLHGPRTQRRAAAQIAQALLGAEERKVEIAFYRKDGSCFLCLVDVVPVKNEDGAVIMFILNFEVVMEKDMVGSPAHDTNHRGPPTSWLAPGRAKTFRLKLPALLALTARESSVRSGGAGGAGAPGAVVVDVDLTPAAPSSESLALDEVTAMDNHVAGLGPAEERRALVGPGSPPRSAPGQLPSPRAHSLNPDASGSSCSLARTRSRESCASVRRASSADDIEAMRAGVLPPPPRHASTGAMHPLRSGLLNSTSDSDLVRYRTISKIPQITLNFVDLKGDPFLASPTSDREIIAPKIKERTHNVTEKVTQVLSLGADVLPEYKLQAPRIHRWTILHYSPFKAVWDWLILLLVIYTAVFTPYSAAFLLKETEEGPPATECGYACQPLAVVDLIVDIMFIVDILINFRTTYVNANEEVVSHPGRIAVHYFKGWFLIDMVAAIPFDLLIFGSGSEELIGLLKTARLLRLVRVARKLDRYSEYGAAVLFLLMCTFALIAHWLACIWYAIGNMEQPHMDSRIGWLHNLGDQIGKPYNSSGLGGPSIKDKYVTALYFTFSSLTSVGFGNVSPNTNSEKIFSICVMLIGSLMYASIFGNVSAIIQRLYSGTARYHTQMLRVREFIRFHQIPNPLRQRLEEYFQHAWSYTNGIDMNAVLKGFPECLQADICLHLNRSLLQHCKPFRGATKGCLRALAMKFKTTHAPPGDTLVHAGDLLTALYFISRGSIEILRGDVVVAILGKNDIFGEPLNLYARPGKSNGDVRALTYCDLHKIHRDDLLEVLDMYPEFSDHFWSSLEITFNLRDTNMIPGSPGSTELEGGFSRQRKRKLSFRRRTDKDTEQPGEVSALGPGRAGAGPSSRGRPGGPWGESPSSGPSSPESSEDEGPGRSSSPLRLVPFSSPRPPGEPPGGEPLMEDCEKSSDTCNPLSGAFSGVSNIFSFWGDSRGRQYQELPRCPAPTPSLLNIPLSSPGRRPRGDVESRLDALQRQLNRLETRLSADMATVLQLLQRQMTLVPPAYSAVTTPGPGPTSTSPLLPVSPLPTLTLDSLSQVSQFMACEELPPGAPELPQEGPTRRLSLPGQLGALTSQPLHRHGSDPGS

On to `C[C@@H]1CN(c2ccc(C#N)c3ncccc23)C[C@H](CN2CC3(C2)CN(c2cnc4c(n2)CCNC4)CCO3)O1` [Example 50, 5-[(2R,6S)-2-methyl-6-[[8-(5,6,7,8-tetrahydropyrido[3,4-b]pyrazin-2-yl)-5-oxa-2,8-diazaspiro [3.5]nonan-2-yl]methyl]morpholin-4-yl] quinoline-8-carbonitrile], for which the IC50 (as a rule, the concentration that inhibits the measured activity by half) is over 20000 nM; the 20% effect concentration (IC20) – broadly, the point of the concentration-response curve where the effect stands at 20% – is over 10000 nM; the “hERG IC20 / TLR8 IC50” value is over 3125.0; the “hERG IC20 / TLR7 IC50” value was over 2702.7. For the same molecule, the “hERG IC20 / TLR9 IC50” value is on record as over 144.9.
On to `C[C@@H]1CN(c2ccc(C#N)c3ncccc23)C[C@H](CN2CCN(c3ccc4c(n3)CNCC4)CC2)O1` [Example 69, 5-[(2R,6S)-2-methyl-6-[[4-(5,6,7,8-tetrahydro-1,7-naphthyridin-2-yl)piperazin-1-yl]methyl]morpholin-4-yl]quinoline-8-carbonitrile], for which the IC50 was over 20000 nM, the IC20 was 8650 nM, the “hERG IC20 / TLR8 IC50” value came out at 1879.8 and the “hERG IC20 / TLR7 IC50” value is 697.4. The “hERG IC20 / TLR9 IC50” value is on record as 104.3.
The like results for `COc1ccc(N2CCN(C[C@H]3CN(c4ccc(C#N)c5ncccc45)C[C@@H](C)O3)CC2)cc1` [Example R1, 5-[(2S,6R)-2-[[4-(4-methoxyphenyl)piperazin-1-yl]methyl]-6-methyl-morpholin-4-yl]quinoline-8-carbonitrile, reference compound] were, in that order, 2740 nM, 879 nM, 6.2, 9.3 and 0.1.
`C[C@@H]1CN(c2ccc(C#N)c3ncccc23)C[C@H](CN2CCN(c3ccc(Cl)cc3)CC2)O1` [Example R2, 5-[(2S,6R)-2-[[4-(4-chlorophenyl)piperazin-1-yl]methyl]-6-methyl-morpholin-4-yl]quinoline-8-carbonitrile, reference compound]: it took 770 nM to reach half-maximal inhibition (IC50), the 20% effect level (IC20) was put at 280 nM, the “hERG IC20 / TLR8 IC50” value was 0.8 and the “hERG IC20 / TLR7 IC50” value was 1.3. The “hERG IC20 / TLR9 IC50” value was determined as 0.04.

Source of the values: patent EP3807270B1, “NOVEL HETEROARYL HETEROCYCLYL COMPOUNDS FOR THE TREATMENT OF AUTOIMMUNE DISEASE” (F. Hoffmann-La Roche AG, priority 2018, dated 2019).
